Experimental data: patent US10273241B2 (President and Fellows of Harvard College, priority 2013, dated 2019)

tested on: MV4;11; test: Cell growth assay, MV4;11 AML cell line; type: cell-based, human; details: Homo sapiens, MV4-11, 240 h; day 10; cells passaged, fresh compound added on days 3 and 7; read-out: MV 4;11 GI50 day 10
Description: (§1) For all other cell lines, compounds were serially diluted in medium and dispensed in triplicate in 96-well plates (0.1% DMSO final for assay) followed by the addition of exponentially growing cells at densities ranging from 5,000 to 30,000 cells/well. Cells were also seeded into 2 additional control wells containing vehicle (0.1% DMSO). […] To determine the estimated cell number in each well, cells that were counted in the control well were diluted 3-fold for an 8-point dilution series, and transferred to 384-well plates in duplicate, 20 μL per well. Cells in all other wells were diluted 4-fold and transferred to 384-well plates in duplicate, 20 μL per well. 20 μL of CellTiter-Glo (Promega) was subsequently added to all wells and luminescence was detected using a SPECTRAmax M3. The control well dilution series was fit to a linear regression and used as a standard for calculating the estimated cell number for each well. For days 7 and 10, total estimated cell number represents the split-adjusted theoretical cell number.

| Compound | GI50 |
| --- | --- |
| C[C@]12CC=C3C=C4CC[C@@H](N)CC45CC[C@]3(O5)[C@@H]1CC[C@@H]2c1ccc2ccncc2c1 [62A, α-primaryamine] | 0.4 nM |
| C[C@]12CC=C3C=C4CC[C@@H](NS(C)(=O)=O)C[C@]45CCC3(O5)[C@@H]1CC[C@@H]2c1ccc2ccncc2c1 [73A, α-methylsulfonamide] | 90 nM |
| C[C@]12CC=C3C=C4CC[C@H](NS(C)(=O)=O)C[C@]45CCC3(O5)[C@@H]1CC[C@@H]2c1ccc2ccncc2c1 [73B, β-methylsulfonamide] | 150 nM |
| CC1(C)NC(=O)N([C@@H]2CCC3=CC4=CC[C@]5(C)[C@@H](c6ccc7ccncc7c6)CC[C@H]5C45CC[C@]3(C2)O5)C1=O [74A, α-dimethylhydantoin] | 400 nM |

tested on: MOLM-14; test: Cell growth assay, MOLM-14 AML cell line; type: cell-based, human; details: Homo sapiens, MOLM-14, 240 h; day 10; cells passaged, fresh compound added on days 3 and 7; read-out: MOL M14 G150 day 10
Description: as §1

| Compound | GI50 |
| --- | --- |
| C[C@]12CC=C3C=C4CC[C@@H](N)CC45CC[C@]3(O5)[C@@H]1CC[C@@H]2c1ccc2ccncc2c1 [62A, α-primaryamine] | 5 nM |
| C[C@]12CC=C3C=C4CC[C@@H](NS(C)(=O)=O)C[C@]45CCC3(O5)[C@@H]1CC[C@@H]2c1ccc2ccncc2c1 [73A, α-methylsulfonamide] | 200 nM |
| C[C@]12CC=C3C=C4CC[C@H](NS(C)(=O)=O)C[C@]45CCC3(O5)[C@@H]1CC[C@@H]2c1ccc2ccncc2c1 [73B, β-methylsulfonamide] | 200 nM |
| CC1(C)NC(=O)N([C@@H]2CCC3=CC4=CC[C@]5(C)[C@@H](c6ccc7ccncc7c6)CC[C@H]5C45CC[C@]3(C2)O5)C1=O [74A, α-dimethylhydantoin] | 800 nM |

tested on: SET-2; test: Cell growth assay, SET-2 cell line; type: cell-based; details: Homo sapiens, SET-2, 240 h; read-out: SET-2 GI50 day 10
Description: (§2) For all other cell lines, compounds were serially diluted in medium and dispensed in triplicate in 96-well plates (0.1% DMSO final for assay) followed by the addition of exponentially growing cells at densities ranging from 5,000 to 30,000 cells/well. Cells were also seeded into 2 additional control wells containing vehicle (0.1% DMSO). After 3 days, the number of viable cells in one of the control wells was counted by hemocytometer or MOXI Z (Orflo) and an equal volume of cells for all wells were split-back with fresh vehicle/compounds such that the resulting seeding density for the control well was 5,000-30,000 cells/well, matching the initial seeding density in that well. This procedure was repeated on day 7 and day 10. % growth was calculated as % growth=100×(total estimated cell number in well−day 0 starting cell number)/(total average vehicle estimated cell number−day 0 starting cell number). To determine the estimated cell number in each well, cells that were counted in the control well were diluted 3-fold for an 8-point dilution series, and transferred to 384-well plates in duplicate, 20 μL per well. Cells in all other wells were diluted 4-fold and transferred to 384-well plates in duplicate, 20 μL per well. 20 μL of CellTiter-Glo (Promega) was subsequently added to all wells and luminescence was detected using a SPECTRAmax M3. The control well dilution series was fit to a linear regression and used as a standard for calculating the estimated cell number for each well. For days 7 and 10, total estimated cell number represents the split-adjusted theoretical cell number.

| Compound | GI50 |
| --- | --- |
| C[C@]12CC=C3C=C4CC[C@@H](N)CC45CC[C@]3(O5)[C@@H]1CC[C@@H]2c1ccc2ccncc2c1 [62A, α-primaryamine] | 0.45 nM |

tested on: K562; test: Cell growth assay, K562 cell line; type: cell-based, human; details: Homo sapiens, K562, 240 h; day 10; lack of activity is taken as evidence of on-target selectivity
Description: as §2

| Compound | GI50 |
| --- | --- |
| C[C@]12CC=C3C=C4CC[C@@H](NS(C)(=O)=O)C[C@]45CCC3(O5)[C@@H]1CC[C@@H]2c1ccc2ccncc2c1 [73A, α-methylsulfonamide] | > 1000 nM |
| C[C@]12CC=C3C=C4CC[C@H](NS(C)(=O)=O)C[C@]45CCC3(O5)[C@@H]1CC[C@@H]2c1ccc2ccncc2c1 [73B, β-methylsulfonamide] | > 1000 nM |
| CC1(C)NC(=O)N([C@@H]2CCC3=CC4=CC[C@]5(C)[C@@H](c6ccc7ccncc7c6)CC[C@H]5C45CC[C@]3(C2)O5)C1=O [74A, α-dimethylhydantoin] | > 1000 nM |

tested on: Human Umbilical Vein Endothelial Cells (HUVECs); test: HUVEC growth inhibition (CellTiter-Blue, 96 h); type: cell-based; details: 96 hour treatment
Description: HUVECs were plated in triplicate in 96-well plates at a density of 1,000 cells/well in 75 μL. After 24 h, compounds were serially diluted in medium and delivered to cells as 4× solutions in 25 μL (0.1% DMSO final for assay). 96 h after compound addition, CellTiter-Blue (Promega) was added to the wells, plates were incubated at 37° C. for 90 min, and fluorescence (555 nm excitation; 580 nm emission) was detected using a SPECTRAmax M3. IC50 was determined by fitting the data to a four-parameter dose-response curve using GraphPad Prism 5.0.

| Compound | inhibition of HUVEC proliferation compared with cortistatin A |
| --- | --- |
| C[C@]12CC=C3C=C4[C@@H](O)[C@H](O)[C@@H]([N+](C)(C)[O-])CC45CC[C@]3(O5)[C@@H]1CC[C@@H]2c1ccc2ccncc2c1 [cortistatin A N-oxide, Cortistatin A N-oxide] | equipotent |

tested on: not listed separately; test: Pharmacokinetic study of 14A in male CD-1 mice; type: in vivo; details: CD-1, mouse, blood, 3 mg/kg IV
Description: For pharmacokinetic studies with (14A), (14A) was formulated in 20% hydroxypropyl-beta-cyclodextrin (HPCD) and male CD-1 mice were given a single dose of 14A at 3 mg/kg i.p. and intravenous (i.v.) and 10 mg/kg oral (p.o.). Prior to dosing, mice were fasted overnight until 4 hours post-dosing. Blood samples were collected at the indicated timepoints and analyzed by HPLC/MS/MS to evaluate the concentration of (14A).

| Compound | clearance |
| --- | --- |
| CN(C)[C@@H]1CCC2=CC3=CC[C@]4(C)[C@@H](c5ccc6ccncc6c5)CC[C@H]4C34CC[C@]2(C1)O4 [14A, α-dimethylamine] | 29 mL/min/kg |

same assay, conditions: CD-1, mouse, blood, 10 mg/kg PO in 20% HPCD, after 2 hours, read-out: Cmax after oral dosing

| Compound | Cmax |
| --- | --- |
| CN(C)[C@@H]1CCC2=CC3=CC[C@]4(C)[C@@H](c5ccc6ccncc6c5)CC[C@H]4C34CC[C@]2(C1)O4 [14A, α-dimethylamine] | 255 ng/mL |

same assay, conditions: CD-1, mouse, blood, 10 mg/kg PO in 20% HPCD, read-out: T1/2 after oral dosing (converted)

| Compound | half-life |
| --- | --- |
| CN(C)[C@@H]1CCC2=CC3=CC[C@]4(C)[C@@H](c5ccc6ccncc6c5)CC[C@H]4C34CC[C@]2(C1)O4 [14A, α-dimethylamine] | ~5 h |

same assay, conditions: CD-1, mouse, blood, 10 mg/kg PO, 24 h, read-out: oral C24 trough concentration

| Compound | concentration at 24 h |
| --- | --- |
| CN(C)[C@@H]1CCC2=CC3=CC[C@]4(C)[C@@H](c5ccc6ccncc6c5)CC[C@H]4C34CC[C@]2(C1)O4 [14A, α-dimethylamine] | 14.2 ng/mL |

same assay, conditions: CD-1, mouse, blood, ip, 3 mg/kg, 3 mg/kg IP, read-out: IP bioavailability

| Compound | bioavailability |
| --- | --- |
| CN(C)[C@@H]1CCC2=CC3=CC[C@]4(C)[C@@H](c5ccc6ccncc6c5)CC[C@H]4C34CC[C@]2(C1)O4 [14A, α-dimethylamine] | 95% |

same assay, conditions: CD-1, mouse, blood, iv, 3 mg/kg, 3 mg/kg IV, read-out: Vss

| Compound | Vd |
| --- | --- |
| CN(C)[C@@H]1CCC2=CC3=CC[C@]4(C)[C@@H](c5ccc6ccncc6c5)CC[C@H]4C34CC[C@]2(C1)O4 [14A, α-dimethylamine] | 11.7 L/kg |

same assay, conditions: CD-1, mouse, blood, oral, 10 mg/kg, 10 mg/kg PO vs 3 mg/kg IV, read-out: oral bioavailability

| Compound | bioavailability |
| --- | --- |
| CN(C)[C@@H]1CCC2=CC3=CC[C@]4(C)[C@@H](c5ccc6ccncc6c5)CC[C@H]4C34CC[C@]2(C1)O4 [14A, α-dimethylamine] | 44% |

tested on: Human Umbilical Vein Endothelial Cells (HUVECs); test: not given; details: less potent than cortistatin A; Aoki et al. 2007; cited from earlier work

| Compound | potency at inhibiting HUVEC proliferation relative to cortistatin A |
| --- | --- |
| cortistatin J | 8 fold |
